Assay results taken from a melting point compilation (Tetko et al.).

| melting point [°C] | Structure (SMILES) |
| --- | --- |
| 87 | O=C(O)CC=Cc1ccccc1 |
| 129 | COc1ccc(CN2CCc3ccccc3C2)cc1O |
| 155 to 157 | COC(=O)c1ccccc1C(=O)c1cc(C)c(O)c(C)c1 |
| 116 | CC(=O)c1ccc(-n2ccnc2)cc1 |
| 119 | Cc1ccccc1C(=O)Cc1ccccc1C(=O)N(C)c1ccccc1 |
| 54.5 | C[C@H]1C(=O)[C@H]2[C@@H](C[C@H]1C#N)C2(C)C |
| 73.3 to 74.4 | O=C(Cl)c1ccc(-c2cccs2)s1 |
| 22 | CCCCCCCCCCCCCCCc1ccccc1 |
| 80 to 82 | Cc1ccc(S(=O)(=O)OCCOCCOCCOS(=O)(=O)c2ccc(C)cc2)cc1 |
| 84 | CCOC(=O)C1C(c2ccc(F)cc2)C(C(=O)OCC)C(O)(C(F)(F)F)NC1(O)C(F)(F)F (configuration not stated) |
| 168 | Cc1ncccc1O |
| -74 | CCC(C)(Cl)Cl |
| 152 | CC(C)(C(=O)O)n1nc2ccccc2n1 |
| 68 | NNC(=O)OCc1ccccc1 |
| -9 | FC(F)(I)C(F)(F)C(F)(F)C(F)(F)I |
| 28 | COc1ccccc1Oc1ccc(C(F)(F)F)cc1N |
| 138 | O=C1c2ccccc2C(=O)C1c1ccc(Br)cc1 |
| 76 | Cc1ccc2c(ccc3ccccc32)n1 |
| 161 to 165 | Cc1ccccc1C(=O)NCC(=O)O |
| 180 | CC1CC=C/C1=N\Nc1ccc([N+](=O)[O-])cc1[N+](=O)[O-] (configuration not stated) |
| 120 to 127 | O=C(C=P(c1ccccc1)(c1ccccc1)c1ccccc1)OCc1ccccc1 |
| 80 | N#CC1CN(Cc2ccccc2)CN(Cc2ccccc2)C1 |
| 198 | O=Cc1ccc(OCC(=O)O)cc1 |

| melting point [°C] | Structure (SMILES) |
| --- | --- |
| 237 | c1ccc(-c2ccc(-c3nnc(-c4ccc(-c5ccccc5)cc4)o3)cc2)cc1 |
| 112 to 116 | CC1=NC2(CCCCC2)[N+]([O-])=C1 |
| -74.6 | CC(C)CCSCCC(C)C |
| 50.5 to 51.5 | CCOC(=O)c1cccc(Oc2cncc(C)n2)c1 |
| 180 | CCC(C)(C)c1cc(O)c(C(C)(C)CC)cc1O |
| 198 | CCOC(=O)CNc1cc(NCC(=O)OCC)c([N+](=O)[O-])cc1[N+](=O)[O-] |
| 99 to 101 | CC(C)(C)OC(=O)N1CCC(Oc2ccc([N+](=O)[O-])cc2)CC1 |
| 149 | Clc1n[nH]c2ccccc12 |
| 94 to 97 | OCc1ccc(-c2nccs2)cc1 |
| 284 | CC1CCC2(C(=O)O)CCC3(C)C(=CCC4C5(C)CCC(O)C(C)(C)C5CCC43C)C2C1C (configuration not stated) |
| 228 | O=[N+]([O-])c1ccc(NN=C2c3ccccc3C2Cl)c([N+](=O)[O-])c1 (configuration not stated) |
| 60 | CCOC(=O)C(C#N)c1ccccc1[N+](=O)[O-] (configuration not stated) |
| 138 to 139 | [O-][N+](=Nc1ccccc1)c1ccc(N=Nc2ccc([N+]([O-])=Nc3ccccc3)cc2)cc1 |
| 41.5 | C=C1C[C@H]1C(O)C(=O)OC (some centres not stated) |
| 212 | CCOC(=O)c1cc2c(=O)oc3ccccc3c2n(Cc2ccccc2)c1=O |
| 17 to 20 | O=C(Cl)c1ccccc1[N+](=O)[O-] |
| 32 | CCCCSC(=Nc1cccnc1)SCc1ccc(C(C)(C)C)cc1 |
| 166 | CC(=O)C(=O)Nc1ccc(Br)cc1 |
| 55 | CCCCCCCCCCCCCCCCCC(=O)OCC(COC(=O)CCCCCCCCCCCCCCCCC)OC(=O)CCCCCCCCCCCCCCCCC |
| 51 to 53 | O=Cc1ccc(-c2ccccn2)cc1 |
| 244 | COC(=O)c1cc(O)nc(O)n1 |
| 101 | Nc1cc([N+](=O)[O-])ccc1F |
| 106 | CCCCCC(=O)Nc1ccc(Cl)c(Cl)c1 |

| melting point [°C] | Structure (SMILES) |
| --- | --- |
| 198 to 200 | OCc1ccccc1O[C@@H]1O[C@H](CO)[C@@H](O)[C@H](O)[C@H]1O |
| 44 to 46 | CC(C)(C)OC(=O)C(C)(C)Sc1ccc(Cl)cc1 |
| 64.2 | C1CCN(SSN2CCCCC2)CC1 |
| 164 | O=C(O)c1cccc(C(=O)c2ccccc2)c1 |
| -40.1 | FC1(F)C(F)(F)C(F)(F)C1(F)F |
| 39 to 42 | Cc1nn(C)c(C)c1S(=O)(=O)Cl |
| 80 to 83 | OCC(F)(F)C(F)(F)C(F)(F)C(F)(F)C(F)(F)C(F)(F)CO |
| -10 | CCC(=O)C(=O)CC |
| -37 | C=Cc1c(C)cc(C)cc1C |
| 300 | CCCCC(N)C(=O)O (configuration not stated) |
| 65 | BrCC(Br)c1cccc(C(Br)CBr)c1 (configuration not stated) |
| 156 | O=[N+]([O-])c1cc(S(=O)(=O)Nc2ccccc2)ccc1Nc1ccccc1 |
| 160 to 165 | O=C(O)c1nccc2ccccc12 |
| 71 to 73 | Nc1ccc(OC2CCOCC2)cc1 |
| 99 | COc1cc(F)c(C=O)cc1F |
| 114 | Cc1cc(=O)n(-c2ccccc2)n1C |
| 87 | CC(C)C=C1NC(c2ccccc2)OC1=O (configuration not stated) |
| 206 to 208 | Clc1ccc(Cc2c(N=Cc3ccc4c(c3)OCO4)n[nH]c2N=Cc2ccc3c(c2)OCO3)cc1 |
| 62 | CCCCCCCCCCCCCCCCCCSSCCCCCCCCCCCCCCCCCC |
| 10 | C#CCCCCCCCCCCCCC |
| 40.5 | O=C1CCCCCCCCC1=O |
| 115 to 116 | O/N=C(/C=Cc1ccccc1)c1ccccc1 |
| 136 to 138 | CCCCOc1ccc(NC(=O)C(F)(F)C(F)(F)C(F)(F)C(F)(F)C(F)(F)C(F)(F)C(F)(F)C(F)(F)F)cc1 |

| melting point [°C] | Structure (SMILES) |
| --- | --- |
| 232 to 280 | CN1CCOc2cc(C(=O)O)cnc21 |
| 117 to 118 | COC(=O)c1ccc(-c2cccs2)nc1 |
| 34 to 37 | COC(=O)c1ccc(C)nc1 |
| 69 to 73 | CC(=O)c1cc(C)c(C)cc1O |
| 178 to 180 | COC(=O)c1ccccc1-n1c(SC)nc2ccccc2c1=O |
| -43 | CCOC(=O)OCC |
| 204 to 206 | O=[N+]([O-])c1ccc(S(=O)(=O)OCc2ccccc2OS(=O)(=O)c2ccc([N+](=O)[O-])cc2)cc1 |
| 163 | CCC(C1CCc2cc(O)ccc2C1)C(C)(C)C(=O)O (configuration not stated) |
| 102 | CCOC(=O)c1sc(-c2ccccn2)nc1CBr |
| 174 | c1cc2c3c(c4ccc5ccccc5c4cc3c1)CC2 |
| 234 to 236 | O=C(O)Cc1cc(O)c(CC(=O)O)cc1O |
| 197 to 199 | O=CC(C=O)c1cnc2ccccc2n1 |
| 229 | O=C(Nc1ccc(Br)cc1)c1c(O)cccc1O |
| 109 | CC(C)(C)OC(=O)NC(Cc1ccc(OCc2ccccc2)cc1)C(=O)O (configuration not stated) |
| 173 to 175 | Nc1c(Br)cccc1C(=O)O |
| 330 | O=c1c(O)c(-c2ccc(O)c(O)c2)oc2cc(O)ccc12 |
| 5 | CC(=O)SCC(C)C(=O)O (configuration not stated) |
| 107 to 109 | C=C1c2cc(OC)c(OC)cc2CCN1C(C)=O |
| -23.5 | CCC(C1CCCCC1)C1CCCCC1 |
| 80 | CSC(Nc1ccccc1)=C(C#N)C#N |
| -56.2 | CC(F)(F)CCl |
| 262 | Cn1c(=O)c(C2=NNC(=O)C2=NNc2ccc(I)cc2)c(O)c2ccccc21 |
| 125 to 129 | O=CC=Cc1ccccc1[N+](=O)[O-] |

| melting point [°C] | Structure (SMILES) |
| --- | --- |
| 47 | O=Cc1c(F)ccc(F)c1Cl |
| 177 to 181 | CC(CN)C(=O)O (racemic) |
| 44 | Cc1c(F)ccc(C#N)c1F |
| 0 | O=COCC=Cc1ccccc1 |
| 137 to 139 | CC(CC(=O)c1ccc(Cl)cc1)C(=O)O (configuration not stated) |
| 48.5 | CC(C)CC=NO |
| 26 | CCC(C)(C)[C@H]1CC[C@H](O)CC1 |
| 40 | Nc1c(F)cc(F)cc1Br |
| 293 to 295 | Cc1ccc(C#N)c(=O)[nH]1 |
| -43 | CCCCCCOCCCCCC |
| 128 to 133 | O=Cc1ccccc1-c1ccccc1C(=O)O |
| 76 to 78 | Cc1nc(-c2ccccc2)sc1S(=O)(=O)Cl |
| 69 to 71 | CN(N)C(=O)c1ccccc1N |
| 48 to 51 | O=C(Cl)c1cc(-c2ccccc2)c(C(F)(F)F)s1 |
| 86 | O=C(O)c1cc(Cl)ccc1C(F)(F)F |
| 223 | c1ccc(-c2nc3ccccc3[nH]2)nc1 |
| 58 to 61 | Nc1ccccc1OC1CCOCC1 |
| 133 | COc1ccc(NC(=S)c2ccccc2)cc1 |
| 172 | CC(=O)C1CCC2C3CCC4=CC(=O)CCC4(C)C3C(=O)CC12C (configuration not stated) |
| 104 to 108 | CC(CC(C)C(=O)O)C(=O)O (configuration not stated) |
| 172 | COc1ccc(C=NC2=NC(C(F)(F)F)N=N2)cc1 (configuration not stated) |

| Structure (SMILES) | melting point [°C] |
| --- | --- |
| O=C1OC(c2cc(Br)c(O)c(Br)c2)(c2cc(Br)c(O)c(Br)c2)c2ccccc21 | 296 |
| CCCCOCCOC(C)=O | -63 |
| COC1C=CC23c4cc5c(cc4COC2(O)CN(C)C3C1)OCO5 (configuration not stated) | 210 |
| CC(C)OC(=O)OOC(=O)OC(C)C | 10 |
| Fc1cccc(F)c1CBr | 51 to 55 |
| Nc1ccc(-c2ccc(N)c(Cl)c2)cc1Cl | 132 |
| CCNS(=O)(=O)C(F)(F)C(F)(F)C(F)(F)C(F)(F)C(F)(F)C(F)(F)C(F)(F)C(F)(F)F | 96 |
| Nc1ccc(Cl)cc1N | 76 |
| CC(C)COC(=O)c1ccccc1C(=O)OCC(C)C | -64 |
| O=[N+]([O-])c1ccc2ncccc2c1 | 154 |
| CC12CCC3C(CCC4CCCCC43C)C1CCC2=O (configuration not stated) | 121 |
| CC(=O)OC1CCC2C3CCC4=CC(=O)CCC4(C)C3CCC12C (configuration not stated) | 140 |
| COc1cc(Oc2ccc(Cl)cc2Cl)ccc1[N+](=O)[O-] | 114 |
| FC(F)(F)OC(F)(I)C(F)(F)F (configuration not stated) | 44 |
